Source: PMC7694037, “Quinolizidine-Derived Lucanthone and Amitriptyline Analogues Endowed with Potent Antileishmanial Activity” (Pharmaceuticals, 2020)
In brackets after ≈: the same amount, converted by molar mass. Like-named read-outs stand apart in the source and are kept apart here.

Experiments:
[1] = system: Leishmania tropica promastigotes; assay: Antileishmanial activity against L. tropica promastigotes (MTT assay); conditions: for IC50: 72 h, IC50 ± SD; for Ratio IC50 Miltef./IC50 Compd. (L. tropica): ratio between IC50 of miltefosine and that of each compound, L. tropica promastigotes
Experimental: (§5) Promastigote stage of L. infantum strain MHOM/TN/80/IPT1 (kindly provided by Dr. M. Gramiccia, ISS, Roma) and L. tropica (MHOM/SY/2012/ISS3130) were cultured in RPMI 1640 medium (EuroClone) supplemented with 10% heat-inactivated fetal calf serum (EuroClone, Milan Italy), 20 mM Hepes and 2 mM L-glutamine at 24 °C. […] Compounds were dissolved in DMSO and then diluted with medium to achieve the required concentrations. Drugs were placed in 96 wells round-bottom microplates and seven serial dilutions made. Miltefosine was used as reference anti-Leishmania drug. Parasites were diluted in complete medium to 5 × 10^6 parasites/mL and 100 μL of the suspension was seeded into the plates, incubated at 24 °C for 72 h and then 20 µL of MTT solution (5 mg/mL) was added into each well for 3 h. The plates were then centrifuged, the supernatants were discarded and the resulting pellets were dissolved in 100 µL of lysing buffer consisting of 20% (w/v) of a solution of SDS (Sigma), 40% DMF (Merck, Milan Italy) in H2O. The absorbance was measured spectrophotometrically at a test wavelength of 550 nm and a reference wavelength of 650 nm.

[2] = system: L. infantum promastigotes; assay: Antileishmanial activity against L. infantum promastigotes (MTT assay); conditions: for Ratio IC50 Miltef./IC50 Compd. (L. infantum): ratio between IC50 of miltefosine and that of each compound, L. infantum promastigotes; for IC50: Leishmania infantum, 72 h, read-out: IC50 L. infantum
Experimental: as §5

[3] = Cytotoxicity against Vero-76 cells (crystal violet staining); type: cell-based, Cercopithecus Aethiops; conditions: Cercopithecus aethiops (African green monkey)
Experimental: (§1) The cytotoxicity of lucanthone was also tested for comparison. […] The relevant selectivity index (SI)—a parameter that quantifies the preferential antileishmanial activity of a compound in relation to mammalian cell toxicity (CC50/IC50)—is tabulated in Table 2. […] The replacement of the 4-methyl substituent with an amino group in compound 14, while preserving good antileishmanial activity, led to a further substantial decrease of cytotoxicity, with a resultantly safer profile (SI = 16.2 and 16.9 for the two Leishmania species).
(§2) Vero-76 cells (ATCC CRL 1587 Cercopithecus Aethiops) were seeded at an initial density of 4 × 10^5 cells/mL in 24-well plates, in culture medium (Dulbecco’s modified eagle’s medium (D-MEM) with L-glutamine, supplemented with fetal bovine serum (FBS), 0.025 g/L kanamycin). Cell cultures were then incubated at 37 °C in a humidified, 5% CO2 atmosphere in the absence or presence of serial dilutions of test compounds. Cell viability was determined after 48–96 h at 37 °C by the Crystal violet staining method. The results are expressed as CC50, which is the concentration of compound necessary to inhibit cell growth by 50%. Each CC50 value is the mean and standard deviation of at least three separate experiments performed in duplicate.

Vero-76 cells = assay: as above; type: cell-based, Cercopithecus Aethiops; conditions: for S.I. L. tropica: CC50 Vero-76 / IC50 L. tropica promastigotes; for S.I. L. infantum: CC50 Vero-76 / IC50 L. infantum promastigotes; for selectivity index (SI), range over both Leishmania species: Vero-76 cells vs L. tropica and L. infantum promastigotes
Experimental: as §1, §2

[4] = system: intramacrophagic amastigotes of L. infantum; assay: Intracellular amastigote susceptibility assay in PMA-differentiated THP-1 macrophages; type: cell-based; conditions: Leishmania infantum; intramacrophagic amastigotes in THP-1 macrophages, 72 h; mean ± SD; read-out: L. infantum Amastigotes IC50
Experimental: Finally, for a better idea of their real value as antileishmanial agents, compounds 14 and 17, displaying the most promising activity against promastigote stage and the highest SI values, together with lucanthone and the corresponding quinolizidine analog 1, were tested against the intramacrophagic amastigote stage of L. infantum.
THP-1 cells (human acute monocytic leukemia) were maintained in RPMI supplemented with 10% FBS (EuroClone), 50 µM 2-mercaptoethanol, 20 mM Hepes and 2 mM glutamine, at 37 °C in 5% CO2. For Leishmania infections, THP-1 cells were plated at 5 × 10^5 cells/mL in 16-chamber Lab-Tek culture slides (Nunc, Milan, Italy) and treated with 0.1 µM phorbol myristate acetate (PMA, Sigma) for 48 h to achieve differentiation into macrophages. Cells were washed and infected with metacyclic L. infantum promastigotes at a macrophage/promastigote ratio of 1/10 for 24 h. Cell monolayers were then washed and incubated in the presence of test compounds for 72 h. Slides were fixed with methanol and stained with Giemsa. The percentages of infected macrophages among treated and non-treated cells were determined by light microscopy.

[5] = Cytotoxicity against PMA-differentiated THP-1 cells (MTT); type: cell-based, human; conditions: human
Experimental: (§3) The cytotoxic concentration (CC50) against THP-1 differentiated into macrophages (Table 3), used for testing the activity against the amastigote stage, is also reported.
(§4) THP-1 cells were plated at 5 × 10^5 cells/mL in 96 wells flat bottom microplates and treated with 0.1 µM PMA for 48 h to achieve differentiation into macrophages. Cells were then treated with serial dilutions of test compounds and cell proliferation evaluated using the MTT assay described for promastigotes.

PMA-differentiated THP-1 = assay: as above; type: cell-based, human; conditions: CC50 THP-1 / IC50 L. infantum amastigotes
Experimental: as §3, §4

Staphylococcus aureus = system: Staphylococcus aureus; design: method as in PMID 3653383; conditions: cited from earlier work
Bacillus subtilis = system: Bacillus subtilis; design: method as in PMID 3653383; conditions: cited from earlier work
[6] = system: Mycobacterium tuberculosis; design: method as in PMID 3653383; conditions: cited from earlier work
[7] = cited from earlier work
[8] = system: Mycobacterium tuberculosis H37Ra; design: method as in PMID 3653383; conditions: cited from earlier work
[9] = system: choline uptake into rat brain synaptosomes; design: method as in PMID 6124978; conditions: 1 µM concentration; cited from earlier work
[10] = Leishmania tropica, read-out: IC50 L. tropica, promastigotes, MTT, 72 h

| Compound | IC50 [1, 10] | Ratio IC50 Miltef./IC50 Compd. (L. tropica) [1] | Ratio IC50 Miltef./IC50 Compd. (L. infantum) [2] | CC50 [3] | S.I. L. tropica (Vero-76 cells) | IC50 [4] | CC50 [5] | SI (THP-1) (PMA-differentiated THP-1) | IC50 [2] | further results |
| --- | --- | --- | --- | --- | --- | --- | --- | --- | --- | --- |
| CCCCCCCCCCCCCCCCOP(=O)([O-])OCC[N+](C)(C)C [Miltefosine, reference compound] | 43.3 ± 11.4 µM | 1.0 | 1.0 | – | – | – | – | – | – | – |
| Cc1ccc(NC[C@@H]2CCCN3CCCC[C@H]23)c2c(=O)c3ccccc3sc12 [Compound 1] | 3.36 ± 1.53 µM | 12.9 | 8.1 | 23.5 ± 1.8 µM | 7.0 | 3.49 ± 0.18 µM | 28 ± 8 µM | 8.0 | 3.87 ± 1.53 µM | MIC Staphylococcus aureus (Staphylococcus aureus): 2.5 µg/mL; MIC Staphylococcus aureus (Staphylococcus aureus; converted from µg/mL): 6.63 µM; MIC Bacillus subtilis (Bacillus subtilis): 2.5 µg/mL; MIC Bacillus subtilis (Bacillus subtilis; converted from µg/mL): 6.63 µM; MIC Mycobacterium tuberculosis [6]: 1.25 µg/mL; MIC Mycobacterium tuberculosis ([6]; converted from µg/mL): 3.32 µM; mortality ([7]; i.p., doses up to 200–350 mg/kg, once a day for five consecutive days, mice inoculated with leukemia P388 cells): no mortality |
| Nc1ccc(NCCC2CCCN3CCCCC23)c2c(=O)c3ccccc3sc12 (stereo not drawn) [Compound 14, 4-amino-1-(quinolizidinylethyl)aminothioxanthen-9-one] | 3.8 ± 1.82 µM | 11.4 | 8.6 | 61.4 ± 2.6 µM | 16.2 | 2.13 ± 1.35 µM | 21.7 ± 8.83 µM | 10.2 | 3.63 ± 0.78 µM | S.I. L. infantum (Vero-76 cells): 16.9; selectivity index (SI), range over both Leishmania species (Vero-76 cells): 16–24; mortality ([7]; mouse, in vivo, 260 mg/kg): no mortality |
| C(=C1c2ccccc2-c2ccccc21)[C@@H]1CCCN2CCCC[C@H]12 [Compound 17, 9-(quinolizidinylmethylidene)fluorene] | 3.5 µM | 12.4 | 7.2 | 83.4 ± 3 µM | 23.9 | 2.7 ± 0.68 µM | 53.9 ± 3.98 µM | 20.0 | 4.35 ± 0.37 µM | S.I. L. infantum (Vero-76 cells): 19.2; selectivity index (SI), range over both Leishmania species (Vero-76 cells): 16–24; MIC Mycobacterium tuberculosis H37Ra [8]: 0.49 µM (≈ 0.155 µg/mL); IC50 ([1]; read-out: IC50 L. tropica, promastigotes, MTT): 3.49 ± 1.02 µM |
| Cc1ccc(NCC2CCCN3CCCCC23)c2c(=O)c3ccccc3oc12 (stereo not drawn) [Compound 16] | 6.56 ± 3.08 µM | 6.6 | 3.8 | – | – | – | – | – | 8.23 ± 1.51 µM | – |
| Cc1ccc(NCCCC2CCCN3CCCCC23)c2c(=O)c3ccccc3sc12 (stereo not drawn) [Compound 3] | 8.89 ± 3.02 µM | 4.87 | 1.8 | – | – | – | – | – | 17.2 ± 1.31 µM | – |
| Nc1ccc(NCC2CCCN3CCCCC23)c2c(=O)c3ccccc3sc12 (stereo not drawn) [Compound 13] | 2.87 ± 0.43 µM | 15.1 | 6.0 | – | – | – | – | – | 5.23 ± 1.83 µM | – |
| NNC(=O)c1ccncc1 [isoniazide, reference compound] | – | – | – | – | – | – | – | – | – | MIC Mycobacterium tuberculosis H37Ra [8]: 0.14 to 0.28 µM |
| Cc1ccc(NC[C@@H]2CCC[N+]3(C)CCCC[C@H]23)c2c(=O)c3ccccc3sc12.[I-] (stereo partly drawn) [Compound 4, (1S,9aR)-5-methyl-1-{[(4-methyl-9-oxo-9H-thioxanthen-1-yl)amino]methyl}-decahydroquinolizin-5-ium iodide] | 17.8 ± 5.61 µM | 2.4 | 2.4 | – | – | – | – | – | 13 ± 2.8 µM | melting point: 147 to 150 °C |
| CN(C)CCC=C1c2ccccc2CCc2ccccc21 [Amitriptyline] | – | – | – | – | – | – | – | – | – | inhibition of choline uptake into rat brain synaptosomes [9]: completely ineffective |
